Results reported in patent US6380227B1, “Fermentative preparation process for and crystal forms of cytostatics” (Novartis AG, priority 1998, dated 2002).

Assay: Stability of crystal forms of epothilone B
Details: storage, no test described

C/C(=C\c1csc(C)n1)[C@@H]1C[C@@H]2O[C@]2(C)CCC[C@H](C)[C@H](O)[C@@H](C)C(=O)C(C)(C)[C@@H](O)CC(=O)O1 [crystal form A, epothilone B]
stability of the solid crystal form: especially stable
